Type in all cases: in vivo
The test system of assay [1] is cattle tick larvae (Rhipicephalus microplus), strain Parkhurst, resistant against synthetic pyrethroids. Put plainly: Rhipicephalus (Boophilus) microplus in-vitro contact test, larval cattle tick. To be noted: 5 μg/cm^2 (=500 g/ha), after 48 hours, read-out: efficacy (larvae dead or moribund). Put shortly:
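Acetone solutions of compound were coated on glass tube walls (900 ppm giving 5 μg/cm^2) and dried. 20–50 pyrethroid-resistant Parkhurst larvae were held per tube at 27° C and 85% relative humidity; after 48 h negative geotaxis scored efficacy as percent larvae dead or moribund.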

The test system of assay [2] is adult engorged female ticks (Rhipicephalus microplus). Put plainly: Rhipicephalus (Boophilus) microplus injection test. To be noted: 168 h, 4 μg/animal, egg deposition after 7 days, read-out: efficacy (infertile eggs). The procedure, abridged: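 Compound was dissolved in DMSO at 10 mg per 0.5 mL and diluted with DMSO to the test concentration. Five engorged adult females received a 1 μL abdominal injection and were kept in a climate chamber. After 7 days, fertile egg deposition was scored, with unclear eggs held until hatching at about 42 days; 100% efficacy means all eggs were infertile.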

Assay [3] deals with adult cat fleas (Ctenocephalides felis). Description: Ctenocephalides felis in-vitro contact test, adult cat flea. To be noted: 5 μg/cm^2 (=500 g/ha), after 48 hours, read-out: efficacy (fleas dead or moribund). How it is done: 9 mg compound is solved in 1 mL acetone and diluted with acetone to the desired concentration. 250 μL of the test solution is filled in 25 mL glass test tubes and homogeneously distributed on the inner walls by rotation and tilting on a shaking device (2 h at 30 rpm). With a compound concentration of 900 ppm, an inner surface of 44.7 cm^2 and a homogeneous distribution, a dose of 5 μg/cm^2 is achieved.
After the solvent has evaporated, each test tube is filled with 5-10 adult cat fleas (Ctenocephalides felis), closed with a perforated lid and incubated in a lying position at room temperature and relative humidity. After 48 hours efficacy is determined. The fleas are patted on the ground of the tubes and are incubated on a heating plate at 45-50° C. for at most 5 minutes. Immotile or uncoordinated moving fleas, which are not able to escape the heat by climbing upwards, are marked as dead or moribund.
An efficacy of 100% means all fleas are dead or moribund; 0% means no fleas are dead or moribund.

For assay [4], the system named is adult unfed cat fleas (Ctenocephalides felis). Description: Ctenocephalides felis oral test. To be noted: 48 h, 100 ppm in cattle blood, after 2 days. The procedure, abridged: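 About 20 adult unfed Ctenocephalides felis fed through parafilm on cattle blood dosed with compound (DMSO stock diluted in blood), blood chamber at 37°C, fleas at room temperature. Mortality (%) scored after 2 days; 100% means all fleas killed.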

Assay [5] deals with adult brown dog ticks (Rhipicephalus sanguineus). Put plainly: Rhipicephalus sanguineus in-vitro contact test with adult brown dog ticks. To be noted: after 48 hours, read-out: efficacy (ticks dead or moribund). Put shortly:
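Compound in acetone coated onto glass tube inner walls at 900 ppm, giving 5 μg/cm^2. Adult ticks (5-10 per tube) held at room temperature for 48 h, then placed on a 45-50° C. heating plate for up to 5 min. Ticks unable to climb away counted dead or moribund; efficacy given as % dead/moribund.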

Assay [6] relates to larvae of the banded cucumber beetle (Diabrotica balteata). Put plainly: Diabrotica balteata spray test. To be noted: 168 h, after 7 days, wheat seeds, read-out: efficacy (seedlings grown up); for pest or weed control at 32 µg/disc, 100 g/ha: 100 g/ha (=32 μg/well). The procedure, abridged: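 Germinated wheat seedlings (5 per well, agar plates) sprayed with compound in acetone/DMF diluted in water with 1000 ppm emulsifier, then infested with 10-20 larvae per unit. Efficacy scored after 7 days as % seedling growth relative to untreated, uninfested control (100% = normal growth, 0% = none).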

Assay [7] deals with green peach aphid (Myzus persicae). Put plainly: Myzus persicae oral test. To be noted: 120 h. The method, then:
Solvent: 100 parts by weight acetone
To produce a suitable preparation of active compound, 1 part by weight of active compound is mixed with the stated amount of solvent, and the concentrate is diluted with water to the desired concentration.
50 μL compound solution is filled in microtiter plates and 150 μL IPL41 insect medium (33%+15% sugar) is added to obtain a total volume of 200 μL per well. Afterwards the plates are sealed with parafilm through which a mixed population of the green peach aphid (Myzus persicae) can suck on the compound preparation.
(§1) After 5 days mortality in % is determined. 100% means all aphids have been killed and 0% means none of the aphids have been killed.

The test system is the same in assay [8]. Description: Myzus persicae spray test. To be noted: foliar, 120 h, after 5 days, Chinese cabbage leaf disks. How it is done: Solvent: 78.0 parts by weight acetone • 1.5 parts by weight dimethylformamide
(§2) Emulsifier: alkylarylpolyglycol ether
(§3) To produce a suitable preparation of active compound, 1 part by weight of active compound is mixed with the stated amount of solvents and is diluted with water, containing an emulsifier concentration of 1000 ppm, to the desired concentration. Further test concentrations are prepared by dilution with emulsifier containing water.
Chinese cabbage (Brassica pekinensis) leaf disks infected with all instars of the green peach aphid (Myzus persicae), are sprayed with a preparation of the active ingredient of the desired concentration.
as §1

Assay [9] concerns larvae of the southern green stink bug (Nezara viridula). Put plainly: Nezara viridula spray test. To be noted: in Hordeum vulgare, 96 h. The procedure, abridged: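 Barley plants infested with Nezara viridula larvae were sprayed with compound in acetone/dimethylformamide, diluted in water containing 1000 ppm alkylarylpolyglycol ether emulsifier. Mortality (%) was scored after 4 days; 100% means all stink bugs killed.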

Assay [10] relates to fall armyworm larvae (Spodoptera frugiperda). Description: Spodoptera frugiperda spray test (maize leaf sections). To be noted: 168 h. Put shortly: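 Maize leaf sections were sprayed with compound formulated in acetone/DMF and diluted in water containing 1000 ppm emulsifier. Once dry, sections were infested with fall armyworm larvae. Mortality (%) was scored after 7 days.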

The subject of assay [11] is brown planthopper (Nilaparvata lugens). Put plainly: Nilaparvata lugens spray test. To be noted: in Oryza sativa, 96 h. The method, then: Solvent: 78.0 parts by weight of acetone • • 1.5 parts by weight of dimethylformamide
as §2, §3
Rice plants (Oryza sativa) are sprayed with a preparation of the active ingredient of the desired concentration and the plants are infested with the brown planthopper (Nilaparvata lugens).
After 4 days mortality in % is determined. 100% means all planthoppers have been killed and 0% means none of the planthoppers have been killed.

For orientation: mortality means the percentage killed. Read a high mortality as a strong lethal effect. As for `CC(NC(=O)c1cc(C(F)(F)F)cc(C(F)(F)F)c1)c1nc(N)nn1-c1ncccn1` (stereo not shown) [I-007], the pest or weed control at 5 µg/cm2 in [1] and in [3] was 100% each time. Moreover, in assay [2], the pest or weed control at 0.004 mg amounted to 100%. The mortality at 100 ppm in assay [4] is 100%. Besides, the pest or weed control at 1 µg/cm2, 100 g/ha in assay [5] (1 μg/cm^2 (=100 g/ha)) was determined as 100%. Moreover, in [5] (5 μg/cm^2 (=500 g/ha)), the pest or weed control at 5 µg/cm2, 500 g/ha stood at 100%. For the same molecule, the pest or weed control at 32 µg/disc, 100 g/ha in [6] was 100%. Further, in [7], the mortality at 4 ppm worked out at 100%. Moreover, the mortality at 100 g/ha in assay [8] was found to be 90%; in assay [9] it was 100%; in [10], 100%.
Turning to `CC(NC(=O)c1cc(C(F)(F)F)cc(C(F)(F)F)c1)c1nc(N(C)C)nn1-c1ncc(Cl)cn1` (stereo not shown) [I-165], the pest or weed control at 32 µg/disc, 100 g/ha in assay [6] came out at 100%. Besides, the mortality at 100 g/ha came out at 90% in [8] and 100% in assay [10]. Moreover, the mortality at 500 g/ha in assay [9] and in assay [11] was 100% throughout.
For `CNc1nc([C@H](C)NC(=O)c2cc(OC(F)(F)F)cc(S(=O)(=O)C3CC3)c2)n(-c2ncccn2)n1` [I-184], the pest or weed control at 32 µg/disc, 100 g/ha in [6] is 100%. For the same molecule, in assay [8], the mortality at 100 g/ha amounted to 90%. The mortality at 500 g/ha in assay [9] and in assay [11] was 100% in each case.
With `C[C@H](NC(=O)c1cc(Cl)cc(C(C)(C)C#N)c1)c1nc(N(C)C)nn1-c1ncc(Cl)cn1` [I-178], the pest or weed control at 32 µg/disc, 100 g/ha in assay [6] worked out at 100%. The mortality at 100 g/ha is 90% in [8] and 100% in [10]. Besides, the mortality at 500 g/ha in [9] and in assay [11] was 100% throughout.
`CON(C)c1nc([C@H](C)NC(=O)c2cc(C(F)(F)F)cc(S(C)(=O)=O)c2)n(-c2ncccn2)n1` [I-153] displayed a mortality at 100 g/ha in [8] of 90%. Besides, the mortality at 500 g/ha in assay [9] and in [11] was 100% throughout.
Take `CNc1nc([C@H](C)NC(=O)c2cc(Cl)cc(S(=O)(=O)C(F)F)c2)n(-c2ncccn2)n1` [I-202]: the pest or weed control at 32 µg/disc, 100 g/ha in assay [6] was 100%. Also, the mortality at 100 g/ha in assay [8] worked out at 90%; in [10], 100%. Moreover, the mortality at 500 g/ha in assay [9] and in [11] was 100% throughout.
In the case of `C[C@H](NC(=O)c1cc(Cl)cc(S(C)(=O)=O)c1)c1nc(N)nn1-c1ccc(C#N)cn1` [I-148, N-[(1S)-1-[5-amino-2-(5-cyano-2-pyridyl)-1,2,4-triazol-3-yl]ethyl]-3-chloro-5-methylsulfonyl-benzamide], in assay [1], the pest or weed control at 5 µg/cm2 was 90%. In assay [6], the pest or weed control at 32 µg/disc, 100 g/ha worked out at 100%. Also, the results for the mortality at 100 g/ha in assay [8] and in assay [10] were 90% and 100%, respectively. For the same molecule, the mortality at 500 g/ha in [9] and in assay [11] was 100% in each case.
Consider `C[C@H](NC(=O)c1cc(OC(F)(F)F)cc(S(=O)(=O)C2CC2)c1)c1nc(N)nn1-c1ncccn1` [I-187], for which the pest or weed control at 32 µg/disc, 100 g/ha in assay [6] came to 100%. The molecule further returned a mortality at 100 g/ha in assay [8] of 90%. Further, the mortality at 500 g/ha in assay [9] and in assay [11] was 100% throughout.
As for `CC(NC(=O)c1cc(Cl)cc(OC(F)(F)F)c1)c1nc(N)nn1-c1ncccn1` (stereo not shown) [I-090], the pest or weed control at 5 µg/cm2 in assay [1] and in assay [3] was 90% in each case. Further, the pest or weed control at 0.004 mg in assay [2] stood at 100%. In addition, in assay [4], the mortality at 100 ppm came to 100%. Besides, the pest or weed control at 32 µg/disc, 100 g/ha in assay [6] was determined as 100%. Besides, the mortality at 100 g/ha came out at 90% in assay [8] and 100% in assay [10].
For the molecule `CC(NC(=O)c1cc(Br)cc(OC(F)(F)F)c1)c1nc(N)nn1-c1ncccn1` (stereo not shown) [I-095], the pest or weed control at 5 µg/cm2 in assay [1] was 100%; in assay [3], 90%. Also, the pest or weed control at 32 µg/disc, 100 g/ha in assay [6] stood at 100%. Moreover, the mortality at 4 ppm in assay [7] stood at 100%. The mortality at 500 g/ha in assay [8] and in assay [9] was 90% each time.
`CC(NC(=O)c1cc(Cl)cc(S(C)(=O)=O)c1)c1nc([S+](C)[O-])nn1-c1ccc(Cl)cn1` (racemic) [I-061, 3-chloro-N-[1-[2-(5-chloro-2-pyridyl)-5-methylsulfinyl-1,2,4-triazol-3-yl]ethyl]-5-methylsulfonyl-benzamide]: the pest or weed control at 160 µg/disc, 500 g/ha in [6] (500 g/ha (=160 μg/well)) was 100%. The mortality at 4 ppm in [7] was determined as 100%. Also, the mortality at 500 g/ha in assay [8] was found to be 90%. In assay [9], the mortality at 100 g/ha came to 100% and the mortality at 500 g/ha was determined as 100%.
For `C[C@H](NC(=O)c1cc(Cl)cc(S(C)(=O)=O)c1)c1nc(N(C)C)nn1-c1ncc(Cl)cn1` [I-179], the pest or weed control at 32 µg/disc, 100 g/ha in assay [6] was 100%. For the same molecule, the mortality at 100 g/ha in assay [8] is 90%; in assay [10], 100%. Also, the mortality at 500 g/ha in [9] and in assay [11] was 100% each time.
Consider `CC(NC(=O)c1cc(OC(F)(F)F)cc(S(C)(=O)=O)c1)c1nc(N(C)C)nn1-c1ncc(Cl)cn1` (stereo not shown) [I-192], for which the pest or weed control at 32 µg/disc, 100 g/ha in [6] stood at 100%. Moreover, the figures for the mortality at 100 g/ha in [8] and in assay [10] were 90% and 100%, respectively. Also, the mortality at 500 g/ha in [9] and in assay [11] was 100% each time.
As for `CON(C)c1nc([C@H](C)NC(=O)c2cc(Cl)cc(C(C)(C)C#N)c2)n(-c2ncccn2)n1` [I-163], the pest or weed control at 32 µg/disc, 100 g/ha in assay [6] was 100%. The mortality at 100 g/ha in assay [8] and in [10] was 100% each time. For the same molecule, the mortality at 500 g/ha in assay [9] and in assay [11] was 100% in each case.

The record behind these values is patent publication US20230028441A1, “NOVEL HETEROARYL-TRIAZOLE COMPOUNDS AS PESTICIDES” (Bayer Aktiengesellschaft, priority 2019, published 2023).
